± gives the expanded uncertainty stated by the source.
How the values were obtained:
[1] = excess molar enthalpy (molar enthalpy of mixing); xn = mol fraction of the nth substance listed; conditions: 323.15 K, 4100 kPa, Liquid, Flow calorimetry
[2] = Liquid

Q: Which excess molar enthalpy ([1]; x1 = 0.0702) does the source give for `C=CC` [propene] + CC(=O)c1ccccc1 here?
A: 0.0129 ± 0.000478 kcal/mol

Q: What about the excess molar enthalpy ([1]; x1 = 0.1375) of the same compound?
A: 0.0251 ± 0.000717 kcal/mol

Q: What about the excess molar enthalpy ([1]; x1 = 0.202) of the same compound?
A: 0.0354 ± 0.000717 kcal/mol

Q: And the excess molar enthalpy ([1]; x1 = 0.264)?
A: 0.0449 ± 0.000956 kcal/mol

Q: And the excess molar enthalpy ([1]; x1 = 0.3235)?
A: 0.0509 ± 0.0012 kcal/mol

Q: And the excess molar enthalpy ([1]; x1 = 0.4086)?
A: 0.0574 ± 0.0012 kcal/mol

Q: What about the excess molar enthalpy ([1]; x1 = 0.4889) of the same compound?
A: 0.0598 ± 0.00143 kcal/mol

Q: And the excess molar enthalpy ([1]; x1 = 0.5893)?
A: 0.0588 ± 0.00143 kcal/mol

Q: And the excess molar enthalpy ([1]; x1 = 0.6828)?
A: 0.0521 ± 0.0012 kcal/mol

Q: And the excess molar enthalpy ([1]; x1 = 0.7487)?
A: 0.044 ± 0.000956 kcal/mol

Q: What about the excess molar enthalpy ([1]; x1 = 0.8115) of the same compound?
A: 0.0339 ± 0.000717 kcal/mol

Q: And the excess molar enthalpy ([1]; x1 = 0.8516)?
A: 0.027 ± 0.000717 kcal/mol

Q: What about the excess molar enthalpy ([1]; x1 = 0.8905) of the same compound?
A: 0.0196 ± 0.000478 kcal/mol

Q: And the excess molar enthalpy ([1]; x1 = 0.9281)?
A: 0.0124 ± 0.000478 kcal/mol

Q: And the excess molar enthalpy ([1]; x1 = 0.9646)?
A: 0.00598 ± 0.000239 kcal/mol

Q: With `C=CC` [propene] as the compound, how does the “vapor or sublimation pressure” value ([2]; 323.27 K) read?
A: 2058.9 ± 14 kPa

Q: With `CC(=O)c1ccccc1` [acetophenone] as the compound, how does the “vapor or sublimation pressure” value ([2]; 323.27 K) read?
A: 0.34 ± 0.042 kPa

Q: Which “vapor or sublimation pressure” value ([2]; 333.15 K) does the source give for `OCCO` [1,2-ethanediol] here?
A: 0.22 ± 0.04 kPa

Q: What about the “vapor or sublimation pressure” value ([2]; 353.15 K) of the same compound?
A: 0.77 ± 0.05 kPa

Q: Which “vapor or sublimation pressure” value ([2]; 333.15 K) does the source give for `O` [water] here?
A: 19.93 ± 0.17 kPa

Q: What about the “vapor or sublimation pressure” value ([2]; 353.15 K) of the same compound?
A: 47.44 ± 0.35 kPa

Source: the NIST ThermoML archive (doi:10.1021/je0342522)
